Reference: US6380182B1, “Methods and compositions controlling biofouling using sulfamic acids” (priority 1997, dated 2002)
Values joined by “and” are separate entries in the source; they are usually repeats but may differ in a detail not shown here. Equal entries are not always repeated.

How the values were obtained:
Format in all cases: cell-based
E. Aerogenes = assay: Minimum inhibitory concentration, 18 hour Basal Salts test; conditions: for MIC pH8: pH 8; for MIC pH6: pH 6
[1] = test system: Bacteria of the genera Bacillus, Flavobacterium, and Pseudomonas; assay: Bioreactor bacterial adhesion test, quantitative inhibition of bacterial adhesion (IBA) by crystal violet absorbance at 586 nm; conditions: 100 ppm, acetone solvent, 168 h incubation at 26-28 C, 50% or greater considered effective
Description: The test method, construction of bioreactors, bacterial growth medium, preparation of bacterial inocula, and biofilm production/chemical testing is the same as outlined in EXAMPLE 3. After 168 h (1 week) of incubation at 26-28 C, the slides were removed from the bioreactors and were positioned vertically to […] using a staining procedure. The slides were briefly flamed in order to fix the cells to the surface, and then transferred for one minute to a container of Gram Crystal Violet (DIFCO Laboratories, Detroit, Mich.). The slides were gently rinsed under running tap water, carefully blotted, and again allowed to air dry overnight The degree of bacterial adhesion was then determined by a quantitative method of evaluation. The pair of glass slides and the pair of stainless steel slides corresponding to each treatment were placed each in Petri plate with 10 mL ethanol (technical) to remove the crystal violet staining the cells attached to the slides. A 1 mL aliquot of the crystal violet ethanol solution obtained in each Petri plate was transferred each to a test tube with 9 mL of deionized sterile water ( 1/10 dilution). The blank for calibration of the optical instrument used for the evaluation was a solution of 1 mL of ethanol in 9 mL of deionized sterile water. The absorbance (ABS) of each solution was determined using a spectrophotometer (Spectronic 21, Bausch and Lomb) at a wavelength of 586 nm. The inhibition of bacterial adhesion (IBA) was calculated: IBA=100 (ABS control−ABS treatment)\ABS control 90 or >% IBA=essentially no bacterial adhesion 89-70% IBA=scant 69-50% IBA=slight 30% IBA=moderate 29-<29% IBA=moderate Compounds which receive 50% IBA or greater were considered effective to prevent the adhesion of bacteria to the submerged slides.

[2] = test system: Bacteria of the genera Bacillus, Flavobacterium, and Pseudomonas; assay: Bioreactor bacterial adhesion test, visual biofilm scoring of crystal violet stained slides; set-up: key: 0=essentially none; 1=scant; 2=slight; 3=moderate; 4=heavy; conditions: Glass slides; 100 ppm; acetone solvent; 3 days; average of four replicate slides; 0-2 considered effective
Description: Test Method: The following method effectively defines the ability of a chemical compound to inhibit bacterial adhesion, or attack the formation of existing attached microorganisms, on various types of surfaces. As an overview, bioreactors were constructed in which approximately 1 in.×3 in. slides (glass or stainless steel) were fixed to the edge of the bioreactor. The lower ends (approx. 2 in.) of the slides dipped into a bacterial growth medium (pH 7) within the bioreactor which contained a known concentration of the test chemical. Following inoculation with known bacterial species, the test solutions were stirred continuously for 3 days. Unless otherwise indicated in the results below, the medium within the bioreactor was turbid by the end of three days. […] A staining procedure was then used on the slides in order to determine the amount of bacteria attached to the surfaces of the slides.
Construction of Bioreactors: The bioreactors comprised a 400 ml glass beaker over which a lid (cover from a standard 9 cm diameter glass petri dish) was placed. With the lid removed, slides of the material of choice were taped at one end with masking tape and suspended inside the bioreactor from the top edge of the beaker. This allows the slides to be submerged within the test medium. Typically, four slides (replicates) were uniformly spaced around the bioreactor. The score presented below are the average of the four replicates. A magnetic stirring bar was placed in the bottom of the unit, the lid positioned, and the bioreactor autoclaved. Two different types of material were used as slides, stainless steel as a metal and glass as a hydrophillic surface.
Bacterial Growth Medium: The liquid medium utilized in the bioreactors was described previously by Delaquis, et al., “Detachment Of Pseudomonas fluorescens From Biofilms On Glass Surfaces In Response To Nutrient Stress”, Microbial Ecology 18:199-210, 1989. The composition of the medium was:
The medium was autoclaved and then allowed to cool. If a sediment formed in the autoclaved medium, the medium was resuspended by shaking before use.
Preparation of Bacterial Inocula: Bacteria of the genera Bacillus, Flavobacterium, and Pseudomonas were isolated from a paper mill slime deposit and maintained in continuous culture. The test organisms were separately streaked onto plate count agar and incubated at 30° C. for 24 hours. With a sterile cotton swab, portions of the colonies were removed and suspended in sterile water. […]
Biofilm Production/Chemical Testing: To four separate bioreactors was added 200 ml of the sterile medium prepared above. Chemicals to be evaluated as biodispersants were first prepared as a stock solution (40 mg/2 ml) using either water or a 9:1 acetone: methanol mixture (ac/MeOH) as a solvent. […]

CCCCNS(=O)(=O)O [a, butyl sulfamic acid]
MIC pH8 (E. Aerogenes): >500
Score (% IBA) 168 h Incub. ([1]; Glass slides): 0 % IBA
Score (% IBA) 168 h Incub. ([1]; SS (stainless steel) slides): 66 % IBA

CCCCCNS(=O)(=O)O [b, amyl sulfamic acid]
MIC pH8 (E. Aerogenes): >500
Score (% IBA) 168 h Incub. ([1]; Glass slides): 65 % IBA
Score (% IBA) 168 h Incub. ([1]; SS (stainless steel) slides): 14 % IBA

CCCCCCCCNS(=O)(=O)O [c, octyl sulfamic acid]
MIC pH8 (E. Aerogenes): >100
Score (% IBA) 168 h Incub. ([1]; Glass slides): 41 % IBA
Score (% IBA) 168 h Incub. ([1]; SS (stainless steel) slides): 54 % IBA

CCCCCCCCN(CCCCCCCC)S(=O)(=O)O [d, dioctyl sulfamic acid]
Score (biofilm score) [2]: 3
MIC pH8 (E. Aerogenes): >100

CCCCCCCCCCCCNS(=O)(=O)O [e, dodecyl sulfamic acid]
Score (biofilm score) [2]: 3.8
Score (% IBA) 168 h Incub. ([1]; Glass slides): 82 % IBA and 72 % IBA
Score (% IBA) 168 h Incub. ([1]; SS (stainless steel) slides): 78 % IBA and 70 % IBA

CCCCCCCCCCCCN(CCCCCCCCCCCC)S(=O)(=O)O [f, didodecyl sulfamic acid]
Score (biofilm score) [2]: 2.00
Score (% IBA) 168 h Incub. ([1]; Glass slides): 27 % IBA
Score (% IBA) 168 h Incub. ([1]; SS (stainless steel) slides): 15 % IBA

CCCCCCCCCCCCCCCCCCNS(=O)(=O)O [g, octadecyl sulfamic acid]
MIC pH8 (E. Aerogenes): >500

O=S(=O)(O)N(C1CCCCC1)C1CCCCC1 [h, dicyclohexyl sulfamic acid]
MIC pH6 (E. Aerogenes): >500
MIC pH8 (E. Aerogenes): >100
Score (% IBA) 168 h Incub. ([1]; Glass slides): 44 % IBA
Score (% IBA) 168 h Incub. ([1]; SS (stainless steel) slides): 57 % IBA

O=S(=O)(O)NN1CCOCC1 [i, morpholino sulfamic acid]
MIC pH6 (E. Aerogenes): >500
MIC pH8 (E. Aerogenes): >100
Score (% IBA) 168 h Incub. ([1]; Glass slides): 47 % IBA
Score (% IBA) 168 h Incub. ([1]; SS (stainless steel) slides): 39 % IBA

piperidinyl sulfamic acid [j]
Score (biofilm score) [2]: 2.5
MIC pH6 (E. Aerogenes): >100
MIC pH8 (E. Aerogenes): >100
Score (% IBA) 168 h Incub. ([1]; Glass slides): 40 % IBA
Score (% IBA) 168 h Incub. ([1]; SS (stainless steel) slides): 68 % IBA
